Laboratory results taken from publication PMC11747885, “Potent inhibitors of the human RNA ligase Rlig1 highlights its role in RNA integrity maintenance under oxidative cellular stress” (Chemical Science, 2025).
Several values for one entry are separate records, joined by “and”; a condition that tells them apart may be missing. Identical values can stand only once. Like-named read-outs stand apart in the source and are kept apart here.

Columns and labels:
Hsp90-TPR2A = molecular target: Hsp90-TPR2A; set-up: method as in MedChemExpress; conditions: interaction of Hsp90-TPR2A; ref MedChemExpress; cited from earlier work
Rlig1-AMP = molecular target: T1, Rlig1-AMP (Homo sapiens, UniProt Q8N999); test: FRET-based high-throughput screening of inhibitors for Rlig1-AMP; type: biochemical; conditions: for 1-D Distance: difference of raw data w/o and w enzyme; for Raw data [w Enyzm]: with enzyme; for Raw data [w/o Enzym]: without enzyme
T1 construct: made in house; host or cells: E. coli BL21 (DE3), pET15b-Rlig1
T1 sequence (Q8N999 whole entry): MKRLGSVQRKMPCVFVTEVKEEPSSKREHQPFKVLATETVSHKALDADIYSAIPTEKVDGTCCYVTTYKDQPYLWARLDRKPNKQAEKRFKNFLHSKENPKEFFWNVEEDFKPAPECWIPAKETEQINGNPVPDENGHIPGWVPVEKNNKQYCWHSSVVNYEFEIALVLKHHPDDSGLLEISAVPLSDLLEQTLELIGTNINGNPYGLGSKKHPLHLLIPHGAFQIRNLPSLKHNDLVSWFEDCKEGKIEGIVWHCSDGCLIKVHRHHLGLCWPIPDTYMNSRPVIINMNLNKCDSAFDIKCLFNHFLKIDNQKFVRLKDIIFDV

FAAH [1] = system: FAAH; set-up: method as in MedChemExpress; conditions: human FAAH; ref MedChemExpress; cited from earlier work
[2] = in DMSO; ref MedChemExpress; cited from earlier work
FAAH [3] = system: FAAH; set-up: method as in MedChemExpress; conditions: rat FAAH; ref MedChemExpress; cited from earlier work
FAAH [4] = system: FAAH; set-up: method as in MedChemExpress; conditions: mouse FAAH; ref MedChemExpress; cited from earlier work
G9a = system: G9a; set-up: method as in MedChemExpress [1]; conditions: ref MedChemExpress [1]; cited from earlier work
NO production = system: NO production; set-up: method as in MedChemExpress; conditions: ref MedChemExpress; cited from earlier work
[5] = DMSO; ultrasonic/warming; ref MedChemExpress; cited from earlier work
ERβ = system: ERβ; set-up: method as in MedChemExpress; conditions: ref MedChemExpress; read-out: IC50, binding to ERβ; cited from earlier work
EGFR = system: EGFR; set-up: method as in MedChemExpress; conditions: ref MedChemExpress; cited from earlier work
factor IXaβ (FIXa) = molecular target: factor IXaβ (FIXa); set-up: method as in MedChemExpress [1][2][3]; conditions: ref MedChemExpress [1][2][3]; cited from earlier work
Dengue Fever virus = system: Dengue Fever virus; set-up: method as in MedChemExpress; conditions: ref MedChemExpress; cited from earlier work
Ebola virus = conditions: cited from earlier work
Rift Valley virus = conditions: cited from earlier work
HCV = system: HCV; set-up: method as in MedChemExpress; conditions: ref MedChemExpress; cited from earlier work
HIV-1 = conditions: ref MedChemExpress; cited from earlier work
[6] = molecular target: phosphodiesterase 5 (PDE5); set-up: method as in MedChemExpress; conditions: ref MedChemExpress; cited from earlier work
[7] = molecular target: phosphodiesterase 3 (PDE3); set-up: method as in MedChemExpress; conditions: ref MedChemExpress; cited from earlier work
[8] = molecular target: phosphodiesterase 4 (PDE4); set-up: method as in MedChemExpress; conditions: ref MedChemExpress; cited from earlier work
[9] = molecular target: Acyl-coenzyme A: cholesterol acyltransferase (ACAT); set-up: method as in MedChemExpress [1]; conditions: rat liver microsomal ACAT; ref MedChemExpress [1]; cited from earlier work
Cdc25B = system: Cdc25B; set-up: method as in MedChemExpress [1]; conditions: ref MedChemExpress [1]; cited from earlier work
Cdc25C = system: Cdc25C; set-up: method as in MedChemExpress [1]; conditions: ref MedChemExpress [1]; cited from earlier work
Cdc25A = system: Cdc25A; set-up: method as in MedChemExpress [1]; conditions: ref MedChemExpress [1]; cited from earlier work
[10] = set-up: method as in MedChemExpress [1]; conditions: ref MedChemExpress [1]; read-out: IC50 superoxide anion scavenging; cited from earlier work
[11] = set-up: method as in MedChemExpress [1]; conditions: ref MedChemExpress [1]; read-out: IC50 DPPH radical scavenging; cited from earlier work
TLR4 signaling = system: TLR4 signaling; set-up: method as in MedChemExpress [1][2][3]; conditions: ref MedChemExpress [1][2][3]; cited from earlier work
H+/K+-ATPases = system: H+/K+-ATPases; set-up: method as in MedChemExpress [1]; conditions: porcine, canine, and human, in vitro; ref MedChemExpress [1]; cited from earlier work
proton transport = system: proton transport; set-up: method as in MedChemExpress; conditions: ref MedChemExpress; read-out: EC50, inhibition of proton transport; cited from earlier work
ErbB2 = system: ErbB2; set-up: method as in MedChemExpress; conditions: ref MedChemExpress, cited from earlier work
TrKA = system: TrKA; set-up: method as in MedChemExpress; conditions: ref MedChemExpress; read-out: IC50, TrKA phosphorylation; cited from earlier work
chymotrypsin = molecular target: chymotrypsin; set-up: method as in MedChemExpress; conditions: ref MedChemExpress; cited from earlier work
[12] = molecular target: Insulin-like Growth Factor 1 Receptor (IGF1R); set-up: method as in MedChemExpress; conditions: ref MedChemExpress; cited from earlier work
NTPDase 3 = molecular target: NTPDase 3; set-up: method as in MedChemExpress; conditions: ref MedChemExpress; cited from earlier work
NTPDase 2 = molecular target: NTPDase 2; set-up: method as in MedChemExpress; conditions: ref MedChemExpress; cited from earlier work
NTPDase 1 (CD39) = molecular target: NTPDase 1 (CD39); set-up: method as in MedChemExpress; conditions: ref MedChemExpress; cited from earlier work
[13] = HTS hits, normalized value (npi)
[14] = sheet HTS hits, MedChemExpress library
[15] = HTS hits, normalised value of 1-D Distance

| Molecule | 1-D Distance (Rlig1-AMP; HTS hits) | Raw data [w Enyzm] (Rlig1-AMP; HTS hits) | Raw data [w/o Enzym] (Rlig1-AMP; HTS hits) | 1-D Distance.npi (Rlig1-AMP; [14]) | 1-D Distance (Rlig1-AMP; sheet HTS hits) | Raw data [w Enyzm] (Rlig1-AMP; sheet HTS hits) | Raw data [w/o Enzym] (Rlig1-AMP; sheet HTS hits) | other results |
| --- | --- | --- | --- | --- | --- | --- | --- | --- |
| Cn1nc(-c2ccccc2)nc2c(=O)n(C)c(=O)nc1-2 [3-Phenyltoxoflavin] | 2083 | 15668 | 17751 |  |  |  |  | Kd (Hsp90-TPR2A): 585 nM; 1-D Distance.npi (Rlig1-AMP; [13]): 71.558 |
| COc1ccc(-c2coc3cc(O)cc(O)c3c2=O)cc1 [Biochanin A] |  |  |  | 79.7493 | 1536 | 8945 | 10481 | IC50 (FAAH [1]): 2400 nM; solubility, DMSO [2]: DMSO : ≥ 50 mg/mL (175.90 mM); IC50 (FAAH [3]): 1400 nM; IC50 (FAAH [4]): 1800 nM |
| COc1cc2c(NCC3CCN(C)CC3)cc(-c3ccc(C)o3)nc2cc1OCCCN1CCCC1.Cl.Cl.Cl [CM-579 trihydrochloride] |  |  |  | 80.8725 | 1286 | 6218 | 7504 | IC50 (G9a): […] |
| CC(/C=C/C=C(\C)C(=O)O[C@@H]1O[C@H](CO)[C@@H](O)[C@H](O)[C@H]1O)=C\C=C\C=C(C)\C=C\C=C(/C)C(=O)O[C@@H]1O[C@H](CO[C@@H]2O[C@H](CO)[C@@H](O)[C@H](O)[C@H]2O)[C@@H](O)[C@H](O)[C@H]1O [Crocin II] | 1772 | 3357 | 5129 |  |  |  |  | IC50 (NO production): 31100 nM; solubility, DMSO [5]: 25 mg/mL and 30.68 mM; 1-D Distance.npi (Rlig1-AMP; [15]): 72.9439 |
| OC[C@H]1O[C@@H](Oc2cc3c(O)cc(O)cc3[o+]c2-c2cc(O)c(O)c(O)c2)[C@H](O)[C@@H](O)[C@@H]1O.[Cl-] [Delphinidin 3-glucoside (chloride)] | 1749 | 3316 | 5065 |  |  |  |  | IC50 (ERβ): 9700 nM; IC50 (EGFR): 2370 nM; 1-D Distance.npi (Rlig1-AMP; [15]): 73.356 |
| CN1CCc2nc(C(=O)N[C@@H]3C[C@@H](C(=O)N(C)C)CC[C@@H]3NC(=O)C(=O)Nc3ccc(Cl)cn3)sc2C1.Cc1ccc(S(=O)(=O)O)cc1.O [Edoxaban (tosylate monohydrate)] |  |  |  | 77.5766 | 1653 | 9167 |  | Ki (factor IXaβ (FIXa)): 41700 nM |
| Cc1cc(NCCCN(C)C)c2ccc3c(ccc4c(NCCCN(C)C)cc(C)nc43)c2n1.Cl.Cl.Cl.Cl [FGI-106 (tetrahydrochloride)] | 429 | 7836 | 8265 |  |  |  |  | EC50 (Dengue Fever virus): 400 to 900 nM; EC50 (Ebola virus): 100 nM; EC50 (Rift Valley virus): 800 nM; EC50 (HCV): 200 nM; EC50 (HIV-1): 150 nM; 1-D Distance.npi (Rlig1-AMP; [13]): 96.4905 |
| Cl.O=C1NCC2(CCN(CCc3ccccc3)CC2)O1 [Fenspiride (hydrochloride)] | 1963 | 8551 | 10514 |  |  |  |  | -log IC50, PDE5 [6]: ~3.8; -log IC50, PDE3 [7]: 3.44; 1-D Distance.npi (Rlig1-AMP; [15]): 70.4519; -log IC50, PDE4 [8]: 4.16 |
| CC(C)=CCc1cc([C@@H]2CC(=O)c3ccc(O)c(CC=C(C)C)c3O2)ccc1O [Glabrol] |  |  |  |  | 1660 | 8836 | 10496 | solubility, DMSO [2]: DMSO : 100 mg/mL (254.78 mM; Need ultrasonic); IC50 [9]: 24600 nM |
| Cc1ccc(Cn2cc(CNC3=C(Cl)C(=O)c4cccnc4C3=O)nn2)cc1 [M2N12] |  |  |  | 96.6155 | 465 | 6859 | 7324 | IC50 (Cdc25B): 1390 nM; IC50 (Cdc25C): 90 nM; solubility, DMSO [2]: DMSO : 11.11 mg/mL (28.21 mM; ultrasonic and warming and heat to 67°C); IC50 (Cdc25A): 530 nM |
| O=C1O[C@@H]2[C@@H](O)[C@H](O)[C@@H](CO)O[C@H]2c2c1cc(O)c(O)c2O [Norbergenin] |  |  |  |  | 1829 | 9099 | 10928 | solubility, DMSO [2]: DMSO : 125 mg/mL (397.79 mM; Need ultrasonic); IC50 [10]: 32000 nM; IC50 [11]: 13000 nM |
| C/C(=N\N=C(N)N)c1cc(NC(=O)CCCCCCCCC(=O)Nc2cc(/C(C)=N/N=C(N)N)cc(/C(C)=N/N=C(N)N)c2)cc(/C(C)=N/N=C(N)N)c1.Cl.Cl.Cl.Cl [Semapimod (tetrahydrochloride)] |  |  |  | 101.371 | 217 | 4067 | 3850 | IC50 (TLR4 signaling): ~300 nM |
| Cc1nc2cc(C(=O)N(C)C)cc(O[C@H]3CCOc4cc(F)cc(F)c43)c2[nH]1 [Tegoprazan] |  |  |  |  | 1843 | 8992 | 10835 | solubility, DMSO [2]: DMSO : 100 mg/mL (258.14 mM; Need ultrasonic); IC50 (H+/K+-ATPases): 290 to 520 nM |
| CCCCCCCCCCCCCCCC[N+](C)(C)CCN(Cc1ccc(OC)cc1)c1ncccn1.[Br-] [Thonzonium (bromide)] | 365 | 4968 | 4603 |  |  |  |  | EC50 (proton transport): 69000 nM; 1-D Distance.npi (Rlig1-AMP; [15]): 101.053 |
| CC(C)(C)c1cc(/C=C(\C#N)C(N)=S)cc(C(C)(C)C)c1O [Tyrphostin AG 879] | 1883 | 2204 | 4087 |  |  |  |  | IC50 (ErbB2; ErbB2): 1000 nM; selectivity to ErbB2 than EGFR (ErbB2; ErbB2 vs EGFR): ≥ 500 fold; IC50 (TrKA): 10000 nM |
| Aprotinin | 1367 | 37995 | 39362 |  |  |  |  | Ki (chymotrypsin): 9 nM; 1-D Distance.npi (Rlig1-AMP; [15]): 82.3934 |
| Indirubin Derivative E804 |  |  |  | 87.7994 | 1070 | 1875 | 2945 | IC50 [12]: 650 nM |
| Sodium metatungstate | 673 | 16164 | 15491 |  |  |  |  | Ki (NTPDase 3): 3260 nM; Ki (NTPDase 2): 28800 nM; Ki (NTPDase 1 (CD39)): 2580 nM; 1-D Distance.npi (Rlig1-AMP; [13]): 95.6511 |
